Patent publication US20160346255A1, “METHODS, AGENTS AND COMPOSITIONS FOR TREATMENT OF INFLAMMATORY CONDITIONS” (Betanien Hospital, priority 2014, published 2016)
Non-standard residues stand in square brackets, D forms with d. Residues, ends and D or L forms follow the SMILES beside them. *: point of attachment. dPhe(4-NHCONH2) = NC(=O)Nc1ccc(C[C@@H](N)C(=O)O)cc1; Dihydroorotyl(S) = O=C1C[C@@H](C(=O)*)NC(=O)N1; dPhe(4-Cl) = N[C@H](Cc1ccc(Cl)cc1)C(=O)O; Phe(4-NH2) = Nc1ccc(C[C@H](N)C(=O)O)cc1; d2Nal = N[C@H](Cc1ccc2ccccc2c1)C(=O)O; Lys(iPr) = CC(C)NCCCC[C@H](N)C(=O)O; d3Pal = N[C@H](Cc1cccnc1)C(=O)O

How the values were obtained:
Type in all cases: in vivo, human
[1] = tested on: Patient with Rheumatoid Arthritis; assay: RA patient treated with degarelix and methotrexate
Experimental: • person with seropositive rheumatoid arthritis with disease duration of 16 years • Fulfilled ACR 2010 classification criteria for rheumatoid arthritis
• Previously failed 3 biologics (etanercept, Actemra, and rituximab). Last tried rituximab November 2013, but increasing disease activity and blood tests (CRP and ESR) during the months thereafter until start of degarelix 16.06.14. Concomitantly used stable methotrexate 10 mg weekly since 1999. • Started degarelix 240 mg induction dose 16.06.14, with 80 mg every 2 weeks thereafter. • Disease activity reduced and they achieved an ACR60 response by 29.09.14 under the introduction of degarelix and stable concomitant methotrexate and prednisolone. • 03.10.14 the patient's pulmonary physician stopped methotrexate treatment due to pleural thickening, and CT imaging supporting lung fibrosis which was suspected to be due to methotrexate. The patient had dyspnea which resolved once methotrexate was stopped. • By 21.11.14, the patients disease activity score had increased from 5.1 (29.9.14) to 5.7 (21.11.14), due to the discontinuation of methotrexate.

[2] = tested on: patients with risk factors for cardiovascular disease; assay: Cardiovascular disease risk factors in patients taking degarelix; conditions: for Blood pressure: baseline 151/90; for Fasting glucose (4.0-6.0): 8.9 in April 2014; for HDL (1.0-2.7 mmol/L): Patient 7, baseline 0.68
Excerpt: In our patient group who were offered degarelix, some patients had risk factors for cardiovascular disease, metabolic syndrome, lipidemia or hypoalphalipoproteinemia (low HDL). None of these patients had recently started medications prior to the GnRH antagonist that could explain the changes in blood pressure, HbA1c, fasting glucose or lipids. See Example 1 for patient information.
Patient 1 with metabolic syndrome fulfilling 3 of 5 metabolic risk factors (large waistline >35 inches, high blood pressure and high fasting glucose). […] High HbA1c, contributes to CVD (normal reference range 4.3-6.1%) At baseline 6.4%, high. By 2 weeks HbA1c had normalized to 6.1%. This continues to be normal, and at 8 months is 5.7%. Their fasting glucose was 6.6 mmol/L in September 2014, by October 2014 this was reduced to 6.3 mmol/L. • 2. High blood pressure, contributes to CVD at baseline 151/90 (measured at several times prior to baseline with repeatedly high blood pressure). Blood pressure by 6 months 120/71, and this continues to be normal. At their last check up at 8 months, their blood pressure was 118/78. • 3. No other abnormalities at baseline for assessment
Patient 4 • High HbA1c, contributes to CVD (normal reference range 4.3-6.1%). At baseline the HbA1c was 6.9%, high. By 1 month the HbA1c had reduced to 6.6, by 2 months 6.4, and by 4 months 6.2, and by 12 months it was normalized to 5.9. Their hospital records from a nearby hospital stated that their fasting glucose was high at 8.5 mmol/L (reference range 4.0-6.0) in December 2013, and by April 2014 this was higher at 8.9. They asked the patient's family doctor to initiate treatment due to the development of diabetes type II. Their fasting glucose had reduced to 6.6 mmol/L by 3 months after starting degarelix, and by 4 months has now normalised to 6.0 mmol/L. No other abnormalities baseline for assessment
Patient 7 • 1. Low HDL, contributes to CVD (normal reference range 1.0-2.7 mmol/L). Mora et al. investigated the link between cholesterol and cardiovascular events in women and found baseline HDL level was consistently and inversely associated with incident coronary and CVD events. A low HDL cholesterol level is thought to accelerate the development of atherosclerosis because of impaired reverse cholesterol transport and possibly because of the absence of other protective effects of HDL, such as decreased oxidation of other lipoproteins. • They had low HDL at baseline 0.68 mmol/L in September 2014. They received their loading dose of degarelix 240 mg s.c. in September 2014. By 1 week, their HDL level had increased to 0.73, and by 2 weeks it continued to increase towards normal at 0.75. By 3 weeks it had normalized to 1.13 mmol/L and at 4 weeks is normal at 1.19 mmol/L. • 2. No other abnormalities at baseline for assessment

[3] = tested on: Patient with Systemic Sclerosis; assay: Systemic sclerosis patient treated with degarelix; conditions: for HAQ DI: baseline 1.88; for Digital tip ulcers/pitting scars: baseline 5; for Modified Rodnan Skin Score: baseline 42; for VAS Fatigue / VAS Fingertip pain/pitting scars/ulcers / VAS Gastrointestinal Symptoms / VAS Global / VAS Lung/dyspnea / VAS Pain / VAS Raynauds/vascular: baseline 100; for Sleep: baseline 2 hrs/night
Excerpt: • person, diagnosed with systemic sclerosis • Fulfilled the 2013 EULAR/ACR classification criteria for systemic sclerosis (1). • Diagnosis based upon Raynauds phenomenon, positive ANA, high titre anti-Scl 70 antibodies, marked skin changes typical of scleroderma, and esophageal dysmotility. • Previously tried cyclophosphamide and mycophenolate mofetil. • Progressive disease and worsening scleroderma skin features, despite therapy. • Rapid progressive cardiac disease, verified by biopsy. • Experimental treatment • 5 Dec. 2014 received first dose of degarelix, 240 mg s.c. • 9 Jan. 2015 received second dose of degarelix, 80 mg s.c.
• Digital ulcers and pitting scars are a characteristic feature of systemic sclerosis, contributing to disability and pain. They are important factors in patients' evaluations of quality of life (2). Their precise objective evaluation can be included in randomized controlled trials (3). Their pathogenesis is unclear. Histologically, there is a plug-like hyperkeratosis with parakeratosis, homogenized collagen fibers and perivascular mononuclear cell infiltration (4). […] Efficacy variables in a systemic sclerosis patient treated with a GnRH antagonist at baseline, 5 weeks and 6 weeks: […]

For `CC(=O)N[C@H](Cc1ccc2ccccc2c1)C(=O)N[C@H](Cc1ccc(Cl)cc1)C(=O)N[C@H](Cc1cccnc1)C(=O)N[C@@H](CO)C(=O)N[C@@H](Cc1ccc(NC(=O)[C@@H]2CC(=O)NC(=O)N2)cc1)C(=O)N[C@H](Cc1ccc(NC(N)=O)cc1)C(=O)N[C@@H](CC(C)C)C(=O)N[C@@H](CCCCNC(C)C)C(=O)N1CCC[C@H]1C(=O)N[C@H](C)C(N)=O` [degarelix] (Ac-[d2Nal][dPhe(4-Cl)][d3Pal]S[Phe(4-NH2)](Dihydroorotyl(S))[dPhe(4-NHCONH2)]L[Lys(iPr)]P[dA]-NH2), the Disease activity score ([1]; 21.11.14, degarelix after methotrexate stopped 03.10.14) was 5.7, the Disease activity score ([1]; 29.9.14, degarelix with methotrexate 10 mg weekly) was 5.1 and the ACR response achieved ([1]; by 29.09.14 (start 16.06.14), with stable concomitant methotrexate and prednisolone) was “ACR60”. The Fasting glucose ([2]; Patient 1, October 2014, 6.6 mmol/L in September 2014) was 6.3 mmol/L, the “Criteria for metabolic syndrome” value ([2]; Patient 1, after degarelix, 3 of 5 risk factors before) was “no longer fulfills the criteria” and the “HbA1c (4.3-6.1%)” value ([2]; Patient 1, at 8 months, baseline 6.4%) was 5.7%. For the same molecule, the Blood pressure ([2]; Patient 1, at 8 months) was 118/78, the “HbA1c (4.3-6.1%)” value ([2]; Patient 1, by 2 weeks, baseline 6.4%) was 6.1% and the Blood pressure ([2]; Patient 1, by 6 months) was 120/71. For the same molecule, the “HbA1c (4.3-6.1%)” value ([2]; Patient 4, by 1 month, baseline 6.9%) was 6.6%, the “HbA1c (4.3-6.1%)” value ([2]; Patient 4, by 2 months, baseline 6.9%) was 6.4% and the “Fasting glucose (4.0-6.0)” value ([2]; Patient 4, by 3 months) was 6.6 mmol/L. For the same molecule, the “Fasting glucose (4.0-6.0)” value ([2]; Patient 4, by 4 months, normalised) was 6.0 mmol/L, the “HbA1c (4.3-6.1%)” value ([2]; Patient 4, by 4 months, baseline 6.9%) was 6.2% and the “HbA1c (4.3-6.1%)” value ([2]; Patient 4, by 12 months, normalized, baseline 6.9%) was 5.9%. The “HDL (1.0-2.7 mmol/L)” value ([2]; at 4 weeks) was 1.19 mmol/L, the “HDL (1.0-2.7 mmol/L)” value ([2]; by 1 week) was 0.73 mmol/L and the “HDL (1.0-2.7 mmol/L)” value ([2]; by 2 weeks) was 0.75 mmol/L. The “HDL (1.0-2.7 mmol/L)” value ([2]; by 3 weeks, normalized) was 1.13 mmol/L, the “HAQ DI” value ([3]; 5 weeks) was 1.38 and the “Digital tip ulcers/pitting scars” value ([3]; 5 weeks) was 2. The “Modified Rodnan Skin Score” value ([3]; 5 weeks) was 40, the “VAS Fatigue” value ([3]; 5 weeks) was 75 and the “VAS Fingertip pain/pitting scars/ulcers” value ([3]; 5 weeks) was 40. The “VAS Gastrointestinal Symptoms” value ([3]; 5 weeks) was 80, the “VAS Global” value ([3]; 5 weeks) was 40 and the “VAS Lung/dyspnea” value ([3]; 5 weeks) was 80. The “VAS Pain” value ([3]; 5 weeks) was 10, the “VAS Raynauds/vascular” value ([3]; 5 weeks) was 40 and the Sleep ([3]; 5 weeks) was 5 hrs/night. For the same molecule, the “HAQ DI” value ([3]; 6 weeks) was 1.38, the “Digital tip ulcers/pitting scars” value ([3]; 6 weeks) was 2 and the “Modified Rodnan Skin Score” value ([3]; 6 weeks) was 40. The “VAS Fatigue” value ([3]; 6 weeks) was 60, the “VAS Fingertip pain/pitting scars/ulcers” value ([3]; 6 weeks) was 30 and the “VAS Gastrointestinal Symptoms” value ([3]; 6 weeks) was 60. The “VAS Global” value ([3]; 6 weeks) was 40, the “VAS Lung/dyspnea” value ([3]; 6 weeks) was 50 and the “VAS Pain” value ([3]; 6 weeks) was 10. The “VAS Raynauds/vascular” value ([3]; 6 weeks) was 30 and the Sleep ([3]; 6 weeks) was 5.5 hrs/night.
